Test results from BindingDB's records for doi:10.7270/Q26M3571 (Nmmlsc, 2007).

What follows are compounds tested against T1, N-formyl peptide receptor 2 (Homo sapiens, UniProt P25090) (assay: FPRL1 fluorescent ligand binding inhibitors, dose response, selectivity assay for FPR1 ligand SAR project, cell-based, flow cytometry, Ki from IC50 (AID 723)).
T1 sequence (P25090 whole entry): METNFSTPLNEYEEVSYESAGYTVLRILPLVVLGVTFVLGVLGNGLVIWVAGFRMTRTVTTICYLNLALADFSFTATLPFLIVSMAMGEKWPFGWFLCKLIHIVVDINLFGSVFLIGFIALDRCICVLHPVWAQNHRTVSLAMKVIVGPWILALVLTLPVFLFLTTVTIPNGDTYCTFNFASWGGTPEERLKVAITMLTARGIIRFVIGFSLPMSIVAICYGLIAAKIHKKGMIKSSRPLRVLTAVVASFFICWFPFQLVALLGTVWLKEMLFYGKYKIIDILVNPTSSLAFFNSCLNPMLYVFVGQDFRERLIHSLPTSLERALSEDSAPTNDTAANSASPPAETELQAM

Ki, > 40.3 µM:
CCCCCCOc1cccc(N2C(=O)C(=O)C(C(=O)c3ccccc3)C2c2cccc(F)c2)c1 (stereo unspecified) [(4Z)-5-(3-fluorophenyl)-1-(3-hexoxyphenyl)-4-[hydroxy(phenyl)methylene]pyrrolidine-2,3-quinone]
COCCN1C(=O)C(=O)C(C(=O)c2ccccc2)C1c1ccccc1OC (stereo unspecified) [(4E)-1-(2-methoxyethyl)-5-(2-methoxyphenyl)-4-[oxidanyl(phenyl)methylidene]pyrrolidine-2,3-dione]
COCCN1C(=O)C(=O)C(C(=O)c2ccccc2)C1c1ccc(C(C)C)cc1 (stereo unspecified) [(4E)-1-(2-methoxyethyl)-4-[oxidanyl(phenyl)methylidene]-5-(4-propan-2-ylphenyl)pyrrolidine-2,3-dione]
O=C1C(=O)N(CN2CCOCC2)C(c2ccc(Br)cc2)C1C(=O)c1ccccc1 (stereo unspecified) [(4E)-5-(4-bromophenyl)-1-(morpholin-4-ylmethyl)-4-[oxidanyl(phenyl)methylidene]pyrrolidine-2,3-dione]
O=C1NC(c2ccc(Br)cc2)C(C(=O)c2ccc(Cl)cc2)C1=O (stereo unspecified) [(4E)-5-(4-bromophenyl)-4-[(4-chlorophenyl)-hydroxy-methylene]pyrrolidine-2,3-quinone]
O=C1C(=O)N(CCCn2ccnc2)C(c2cccnc2)C1C(=O)c1cc2ccccc2o1 (stereo unspecified) [3-(1-benzofuran-2-carbonyl)-4-hydroxy-1-(3-imidazol-1-ylpropyl)-2-pyridin-3-yl-2H-pyrrol-5-one]
Cc1ccc(N2C(=O)C(=O)C(C(=O)c3ccccc3)C2c2cccc(F)c2)cc1Br (stereo unspecified) [(4Z)-1-(3-bromanyl-4-methyl-phenyl)-5-(3-fluorophenyl)-4-[oxidanyl(phenyl)methylidene]pyrrolidine-2,3-dione]
COc1cc(C2C(C(=O)c3cc4ccccc4o3)C(=O)C(=O)N2CCN(C)C)ccc1O (stereo unspecified) [3-(1-benzofuran-2-carbonyl)-1-[2-(dimethylamino)ethyl]-4-hydroxy-2-(4-hydroxy-3-methoxyphenyl)-2H-pyrrol-5-one]
O=C1C(=O)N(CCCN2CCOCC2)C(c2cccnc2)C1C(=O)c1cc2ccccc2o1 (stereo unspecified) [3-(1-benzofuran-2-carbonyl)-4-hydroxy-1-(3-morpholin-4-ylpropyl)-2-pyridin-3-yl-2H-pyrrol-5-one]
COc1ccc(C2C(C(=O)c3ccccc3)C(=O)C(=O)N2CCCn2ccnc2)c(OC)c1 (stereo unspecified) [(4E)-5-(2,4-dimethoxyphenyl)-1-(3-imidazol-1-ylpropyl)-4-[oxidanyl(phenyl)methylidene]pyrrolidine-2,3-dione]
O=C1C(=O)N(CCc2ccccc2)C(c2ccc(Cl)cc2)C1C(=O)c1cccs1 (stereo unspecified) [2-(4-chlorophenyl)-4-hydroxy-1-(2-phenylethyl)-3-(thiophene-2-carbonyl)-2H-pyrrol-5-one]
O=C1C(=O)N(CCCn2ccnc2)C(c2cccnc2)C1C(=O)c1ccco1 (stereo unspecified) [3-(furan-2-carbonyl)-4-hydroxy-1-(3-imidazol-1-ylpropyl)-2-pyridin-3-yl-2H-pyrrol-5-one]
COc1ccc(C2C(C(=O)c3ccc(C)cc3)C(=O)C(=O)N2Cc2cccnc2)c(OC)c1 (stereo unspecified) [(4E)-5-(2,4-dimethoxyphenyl)-4-[(4-methylphenyl)-oxidanyl-methylidene]-1-(pyridin-3-ylmethyl)pyrrolidine-2,3-dione]
COc1ccc(OC)c(C2C(C(=O)c3ccccc3)C(=O)C(=O)N2c2cccnc2)c1 (stereo unspecified) [(4E)-5-(2,5-dimethoxyphenyl)-4-[hydroxy(phenyl)methylene]-1-(3-pyridyl)pyrrolidine-2,3-quinone]
COc1ccc(C(=O)C2C(=O)C(=O)N(CCc3c[nH]c4ccccc34)C2c2ccc(C(C)C)cc2)cc1 (stereo unspecified)
COc1ccc(OC)c(C2C(C(=O)c3ccc(C)cc3)C(=O)C(=O)N2CCC(=O)O)c1 (stereo unspecified) [3-[(3E)-2-(2,5-dimethoxyphenyl)-3-[(4-methylphenyl)-oxidanyl-methylidene]-4,5-bis(oxidanylidene)pyrrolidin-1-yl]propanoic acid]
COc1ccc(C2C(C(=O)c3ccco3)C(=O)C(=O)N2CCN2CCOCC2)c(OC)c1 (stereo unspecified) [5-(2,4-dimethoxyphenyl)-4-(furan-2-carbonyl)-3-hydroxy-1-(2-morpholinoethyl)-1H-pyrrol-2(5H)-one]
O=C1C(=O)N(c2ccc(F)cc2)C(c2ccc(Br)cc2)C1C(=O)c1ccccc1 (stereo unspecified) [(4Z)-5-(4-bromophenyl)-1-(4-fluorophenyl)-4-[hydroxy(phenyl)methylene]pyrrolidine-2,3-quinone]
Cc1ccc(C(=O)C2C(=O)C(=O)N(c3nnc(C)s3)C2c2ccc(C(C)C)cc2)cc1 (stereo unspecified) [(4E)-4-[(4-methylphenyl)-oxidanyl-methylidene]-1-(5-methyl-1,3,4-thiadiazol-2-yl)-5-(4-propan-2-ylphenyl)pyrrolidine-2,3-dione]
COc1ccc(C2C(C(=O)c3ccco3)C(=O)C(=O)N2CCCN2CCOCC2)cc1OC (stereo unspecified) [2-(3,4-dimethoxyphenyl)-3-(furan-2-carbonyl)-4-hydroxy-1-(3-morpholin-4-ylpropyl)-2H-pyrrol-5-one]
CC(C)c1ccc(C2C(C(=O)c3ccccc3)C(=O)C(=O)N2Cc2cccnc2)cc1 (stereo unspecified) [(4E)-4-[hydroxy(phenyl)methylene]-5-p-cumenyl-1-(3-pyridylmethyl)pyrrolidine-2,3-quinone]
O=C(O)CCCN1C(=O)C(=O)C(C(=O)c2ccccc2)C1/C=C/c1ccccc1 (stereo unspecified) [4-[(4E)-2,3-bis(oxidanylidene)-4-[oxidanyl(phenyl)methylidene]-5-[(E)-2-phenylethenyl]pyrrolidin-1-yl]butanoic acid]
CCCCCCN1C(=O)C(=O)C(C(=O)c2ccccc2)C1c1ccc(O)c(OC)c1 (stereo unspecified) [(4Z)-1-hexyl-5-(3-methoxy-4-oxidanyl-phenyl)-4-[oxidanyl(phenyl)methylidene]pyrrolidine-2,3-dione]
COc1ccc(C2C(C(=O)c3cc4ccccc4o3)C(=O)C(=O)N2CCN(C)C)cc1OC (stereo unspecified) [3-(1-benzofuran-2-carbonyl)-2-(3,4-dimethoxyphenyl)-1-[2-(dimethylamino)ethyl]-4-hydroxy-2H-pyrrol-5-one]
Cc1ccc(C(=O)C2C(=O)C(=O)N(Cc3cccnc3)C2c2ccc(Br)cc2)cc1 (stereo unspecified) [(4E)-5-(4-bromophenyl)-4-[(4-methylphenyl)-oxidanyl-methylidene]-1-(pyridin-3-ylmethyl)pyrrolidine-2,3-dione]
CC(=O)C1C(=O)C(=O)N(CCc2c(C)[nH]c3ccccc23)C1c1cccc(F)c1 (stereo unspecified)
COc1ccc(C2C(C(=O)c3cccs3)C(=O)C(=O)N2CCCn2ccnc2)cc1 (stereo unspecified) [1-(3-imidazol-1-ylpropyl)-2-(4-methoxyphenyl)-4-oxidanyl-3-thiophen-2-ylcarbonyl-2H-pyrrol-5-one]
COc1ccc(C(=O)C2C(=O)C(=O)NC2c2ccc(OC)cc2OC)cc1 (stereo unspecified) [(4Z)-5-(2,4-dimethoxyphenyl)-4-[(4-methoxyphenyl)-oxidanyl-methylidene]pyrrolidine-2,3-dione]
COCCCN1C(=O)C(=O)C(C(=O)c2ccccc2)C1c1ccc(C(C)C)cc1 (stereo unspecified) [(4E)-1-(3-methoxypropyl)-4-[oxidanyl(phenyl)methylidene]-5-(4-propan-2-ylphenyl)pyrrolidine-2,3-dione]
COc1cc(C2C(C(C)=O)C(=O)C(=O)N2c2ccc(Br)cc2)ccc1O (stereo unspecified) [1-(4-bromophenyl)-3-ethanoyl-2-(3-methoxy-4-oxidanyl-phenyl)-4-oxidanyl-2H-pyrrol-5-one]
COc1ccc(C2C(C(=O)c3cccs3)C(=O)C(=O)N2CCN2CCOCC2)c(OC)c1 (stereo unspecified) [2-(2,4-dimethoxyphenyl)-1-(2-morpholin-4-ylethyl)-4-oxidanyl-3-thiophen-2-ylcarbonyl-2H-pyrrol-5-one]
COCCN1C(=O)C(=O)C(C(=O)c2ccccc2)C1c1cc(OC)ccc1OC (stereo unspecified) [(4E)-5-(2,5-dimethoxyphenyl)-1-(2-methoxyethyl)-4-[oxidanyl(phenyl)methylidene]pyrrolidine-2,3-dione]
COc1ccc(OC)c(C2C(C(=O)c3ccccc3)C(=O)C(=O)N2c2ccc(C)c(Cl)c2)c1 (stereo unspecified) [(4E)-1-(3-chloranyl-4-methyl-phenyl)-5-(2,5-dimethoxyphenyl)-4-[oxidanyl(phenyl)methylidene]pyrrolidine-2,3-dione]
COc1ccc(C2C(C(=O)c3ccccc3)C(=O)C(=O)N2c2cccc(Cl)c2)c(OC)c1 (stereo unspecified) [(4E)-1-(3-chlorophenyl)-5-(2,4-dimethoxyphenyl)-4-[hydroxy(phenyl)methylene]pyrrolidine-2,3-quinone]
COCCCN1C(=O)C(=O)C(C(=O)c2ccccc2)C1c1ccc(O)c(OC)c1 (stereo unspecified) [(4E)-5-(3-methoxy-4-oxidanyl-phenyl)-1-(3-methoxypropyl)-4-[oxidanyl(phenyl)methylidene]pyrrolidine-2,3-dione]
N#Cc1c(N=C(CC(=O)c2ccccc2)C(=O)O)sc2c1CCC2 [(Z)-2-[(3-cyano-5,6-dihydro-4H-cyclopenta[b]thiophen-2-yl)amino]-4-keto-4-phenyl-but-2-enoic acid]
